Laboratory results from the kinase profiling compilation of Christmann-Franck et al. (2016).

Columns and labels:
Test in all cases: KINOMEscan competition binding
Details in all cases: compound 10.0 µM
[1] = target: CDK7 (human) (UniProt P50613)
[2] = target: EPHA1 (human) (UniProt P21709)
[3] = target: PAK6 (human) (UniProt Q9NQU5)
[4] = target: MAP2K3 (human) (UniProt P46734)
[5] = target: STK35 (human) (UniProt Q8TDR2)
[6] = target: FGFR2 (human) (UniProt P21802)
[7] = target: MST4 (human) (UniProt Q9P289)
[8] = target: CDK11B (human) (UniProt P21127)
[9] = target: PAK7 (human) (UniProt Q9P286)
[10] = system: KIT (human), P10721 [D816V]
[11] = target: EPHB3 (human) (UniProt P54753)
[12] = target: WEE1 (human) (UniProt P30291)
[13] = target: ACVR1B (human) (UniProt P36896)
[14] = target: PRKAA2 (human) (UniProt P54646)
[15] = target: PRKD3 (human) (UniProt O94806)
[16] = target: RIOK3 (human) (UniProt O14730)
[17] = target: CSNK1G3 (human) (UniProt Q9Y6M4)
[18] = target: MAP2K2 (human) (UniProt P36507)
[19] = target: TYK2 JH1 catalytic (human) (UniProt P29597)
[20] = target: CAMK1D (human) (UniProt Q8IU85)
[21] = target: MAP3K3 (human) (UniProt Q99759)
[22] = target: AKT1 (human) (UniProt P31749)
[23] = target: CDK18 (human) (UniProt Q07002)
[24] = target: STK36 (human) (UniProt Q9NRP7)
[25] = target: INSR (human) (UniProt P06213)
[26] = target: RPS6KA5 KD1 (human) (UniProt O75582)
[27] = target: MAPK3 (human) (UniProt P27361)
[28] = target: AURKA (human) (UniProt O14965)
[29] = target: MAP4K5 (human) (UniProt Q9Y4K4)
[30] = target: DMPK (human) (UniProt Q09013)
[31] = target: MST1R (human) (UniProt Q04912)
[32] = target: FRK (human) (UniProt P42685)
[33] = target: SRPK3 (human) (UniProt Q9UPE1)
[34] = target: NUAK2 (human) (UniProt Q9H093)
[35] = target: PRKACA (human) (UniProt P17612)
[36] = target: SRPK1 (human) (UniProt Q96SB4)
[37] = target: ROS1 (human) (UniProt P08922)
[38] = target: NLK (human) (UniProt Q9UBE8)
[39] = target: CSNK1G2 (human) (UniProt P78368)
[40] = target: MARK4 (human) (UniProt Q96L34)
MARK4 (human), sequence (Q96L34 whole entry, looked up): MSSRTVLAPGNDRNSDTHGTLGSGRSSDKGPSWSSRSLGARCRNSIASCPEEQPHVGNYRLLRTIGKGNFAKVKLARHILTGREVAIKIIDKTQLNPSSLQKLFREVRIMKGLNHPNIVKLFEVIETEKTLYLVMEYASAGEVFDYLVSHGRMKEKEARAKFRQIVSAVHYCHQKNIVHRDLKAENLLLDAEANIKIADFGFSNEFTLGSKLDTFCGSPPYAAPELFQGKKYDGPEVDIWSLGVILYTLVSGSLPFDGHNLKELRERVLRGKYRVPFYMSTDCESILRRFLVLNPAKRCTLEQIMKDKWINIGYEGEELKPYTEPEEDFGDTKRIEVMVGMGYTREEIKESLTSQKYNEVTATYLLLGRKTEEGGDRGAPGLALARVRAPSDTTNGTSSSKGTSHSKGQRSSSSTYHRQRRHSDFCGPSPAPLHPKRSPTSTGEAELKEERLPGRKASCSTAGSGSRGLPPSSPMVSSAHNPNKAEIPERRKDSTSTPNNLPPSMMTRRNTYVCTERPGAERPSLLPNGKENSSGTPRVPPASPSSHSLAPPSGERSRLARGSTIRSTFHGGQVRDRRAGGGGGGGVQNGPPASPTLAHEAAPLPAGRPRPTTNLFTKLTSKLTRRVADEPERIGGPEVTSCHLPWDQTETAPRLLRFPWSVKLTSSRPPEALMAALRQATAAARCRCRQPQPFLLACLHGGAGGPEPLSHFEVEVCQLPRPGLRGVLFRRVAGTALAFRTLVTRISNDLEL

EPHA1 (human), sequence (P21709 whole entry, looked up): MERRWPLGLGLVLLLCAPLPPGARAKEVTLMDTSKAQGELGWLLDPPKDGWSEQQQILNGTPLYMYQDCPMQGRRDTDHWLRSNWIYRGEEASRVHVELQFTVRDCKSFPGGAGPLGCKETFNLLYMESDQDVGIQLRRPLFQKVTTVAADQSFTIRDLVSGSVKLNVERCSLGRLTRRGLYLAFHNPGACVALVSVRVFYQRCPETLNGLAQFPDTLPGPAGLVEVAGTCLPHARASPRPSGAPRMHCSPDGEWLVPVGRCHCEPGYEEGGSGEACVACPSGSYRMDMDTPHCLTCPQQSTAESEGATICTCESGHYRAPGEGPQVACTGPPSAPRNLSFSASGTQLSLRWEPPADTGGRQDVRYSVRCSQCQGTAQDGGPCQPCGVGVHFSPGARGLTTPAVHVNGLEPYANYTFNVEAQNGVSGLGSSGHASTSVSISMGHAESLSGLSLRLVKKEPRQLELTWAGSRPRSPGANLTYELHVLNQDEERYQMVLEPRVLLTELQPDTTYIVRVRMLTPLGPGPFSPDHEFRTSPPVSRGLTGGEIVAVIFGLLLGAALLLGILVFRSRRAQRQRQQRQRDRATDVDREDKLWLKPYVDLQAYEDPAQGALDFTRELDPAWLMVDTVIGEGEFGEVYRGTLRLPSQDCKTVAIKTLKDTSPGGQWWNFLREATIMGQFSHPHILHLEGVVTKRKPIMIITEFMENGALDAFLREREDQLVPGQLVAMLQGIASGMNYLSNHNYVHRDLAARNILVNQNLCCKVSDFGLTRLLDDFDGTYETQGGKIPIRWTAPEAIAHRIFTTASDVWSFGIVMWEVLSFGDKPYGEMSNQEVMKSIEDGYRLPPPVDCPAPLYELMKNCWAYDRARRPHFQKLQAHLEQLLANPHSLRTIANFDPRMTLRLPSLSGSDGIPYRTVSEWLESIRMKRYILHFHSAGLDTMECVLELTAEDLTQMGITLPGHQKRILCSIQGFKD
STK36 (human), sequence (Q9NRP7 whole entry, looked up): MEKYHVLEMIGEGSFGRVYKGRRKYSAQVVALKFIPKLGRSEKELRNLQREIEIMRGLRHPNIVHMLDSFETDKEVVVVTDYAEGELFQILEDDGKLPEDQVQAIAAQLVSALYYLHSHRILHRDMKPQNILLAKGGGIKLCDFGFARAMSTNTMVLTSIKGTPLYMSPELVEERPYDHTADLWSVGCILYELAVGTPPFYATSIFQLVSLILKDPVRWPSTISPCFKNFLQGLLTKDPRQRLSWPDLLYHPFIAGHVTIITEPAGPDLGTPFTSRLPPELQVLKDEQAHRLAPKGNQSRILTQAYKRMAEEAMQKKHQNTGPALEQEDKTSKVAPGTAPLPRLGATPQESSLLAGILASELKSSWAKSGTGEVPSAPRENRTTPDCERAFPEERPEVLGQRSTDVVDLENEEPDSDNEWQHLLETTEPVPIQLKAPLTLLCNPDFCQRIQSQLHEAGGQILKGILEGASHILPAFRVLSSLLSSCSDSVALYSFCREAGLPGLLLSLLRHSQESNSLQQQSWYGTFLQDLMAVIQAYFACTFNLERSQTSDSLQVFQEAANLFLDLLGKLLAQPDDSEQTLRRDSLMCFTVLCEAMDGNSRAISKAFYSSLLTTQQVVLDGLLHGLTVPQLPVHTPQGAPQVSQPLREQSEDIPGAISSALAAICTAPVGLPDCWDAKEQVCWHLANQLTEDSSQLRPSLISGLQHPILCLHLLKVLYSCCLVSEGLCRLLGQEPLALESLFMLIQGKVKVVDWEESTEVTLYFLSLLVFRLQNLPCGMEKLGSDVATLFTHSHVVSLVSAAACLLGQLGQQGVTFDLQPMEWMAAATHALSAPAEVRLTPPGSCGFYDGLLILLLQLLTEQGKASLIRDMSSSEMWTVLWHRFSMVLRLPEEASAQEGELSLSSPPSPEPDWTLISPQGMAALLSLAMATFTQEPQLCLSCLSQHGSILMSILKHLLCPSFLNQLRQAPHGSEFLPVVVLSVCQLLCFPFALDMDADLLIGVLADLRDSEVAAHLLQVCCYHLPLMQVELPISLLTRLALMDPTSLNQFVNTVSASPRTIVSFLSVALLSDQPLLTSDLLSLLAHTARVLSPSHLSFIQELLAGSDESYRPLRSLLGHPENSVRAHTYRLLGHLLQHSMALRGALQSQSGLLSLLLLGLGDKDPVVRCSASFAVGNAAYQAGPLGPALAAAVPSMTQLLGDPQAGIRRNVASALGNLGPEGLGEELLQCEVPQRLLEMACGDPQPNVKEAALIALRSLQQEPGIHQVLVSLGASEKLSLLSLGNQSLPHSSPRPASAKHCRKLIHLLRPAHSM
PRKD3 (human), sequence (O94806 whole entry, looked up): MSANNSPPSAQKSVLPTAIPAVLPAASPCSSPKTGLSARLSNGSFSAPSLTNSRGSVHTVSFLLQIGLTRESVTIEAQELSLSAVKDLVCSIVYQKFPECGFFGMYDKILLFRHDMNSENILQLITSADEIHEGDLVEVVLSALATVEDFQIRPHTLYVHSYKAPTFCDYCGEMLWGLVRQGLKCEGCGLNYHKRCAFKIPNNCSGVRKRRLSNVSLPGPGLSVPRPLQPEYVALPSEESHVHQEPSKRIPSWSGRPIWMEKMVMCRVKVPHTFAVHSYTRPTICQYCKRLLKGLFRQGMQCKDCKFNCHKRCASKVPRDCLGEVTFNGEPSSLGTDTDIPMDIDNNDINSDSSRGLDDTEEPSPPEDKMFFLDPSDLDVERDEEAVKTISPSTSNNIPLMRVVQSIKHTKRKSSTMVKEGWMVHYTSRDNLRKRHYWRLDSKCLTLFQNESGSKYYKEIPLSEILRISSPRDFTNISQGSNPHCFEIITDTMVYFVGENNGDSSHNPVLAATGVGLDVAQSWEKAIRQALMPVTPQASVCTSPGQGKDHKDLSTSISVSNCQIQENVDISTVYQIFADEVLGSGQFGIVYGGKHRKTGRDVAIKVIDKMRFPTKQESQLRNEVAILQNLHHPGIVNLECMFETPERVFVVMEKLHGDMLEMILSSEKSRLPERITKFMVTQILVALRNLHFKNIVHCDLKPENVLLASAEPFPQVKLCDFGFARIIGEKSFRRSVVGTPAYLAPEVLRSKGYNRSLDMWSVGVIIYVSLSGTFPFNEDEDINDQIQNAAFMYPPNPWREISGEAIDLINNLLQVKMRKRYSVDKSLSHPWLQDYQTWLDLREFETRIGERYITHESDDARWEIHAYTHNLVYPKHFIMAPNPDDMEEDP
STK35 (human), sequence (Q8TDR2 whole entry, looked up): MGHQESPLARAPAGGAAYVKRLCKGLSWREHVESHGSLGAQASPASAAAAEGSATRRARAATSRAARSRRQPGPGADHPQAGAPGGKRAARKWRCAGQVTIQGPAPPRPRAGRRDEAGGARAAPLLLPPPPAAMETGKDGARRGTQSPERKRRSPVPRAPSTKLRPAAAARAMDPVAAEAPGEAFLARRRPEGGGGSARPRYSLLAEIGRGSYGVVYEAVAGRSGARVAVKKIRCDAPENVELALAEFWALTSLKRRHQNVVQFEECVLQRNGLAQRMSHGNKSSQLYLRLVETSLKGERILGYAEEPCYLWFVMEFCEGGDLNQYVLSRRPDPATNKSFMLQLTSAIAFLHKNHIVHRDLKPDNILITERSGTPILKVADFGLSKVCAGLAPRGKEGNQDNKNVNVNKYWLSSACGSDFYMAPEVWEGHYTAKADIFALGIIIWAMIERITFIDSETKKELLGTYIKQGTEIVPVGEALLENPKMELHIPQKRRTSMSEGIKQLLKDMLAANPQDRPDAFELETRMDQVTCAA
FRK (human), sequence (P42685 whole entry, looked up): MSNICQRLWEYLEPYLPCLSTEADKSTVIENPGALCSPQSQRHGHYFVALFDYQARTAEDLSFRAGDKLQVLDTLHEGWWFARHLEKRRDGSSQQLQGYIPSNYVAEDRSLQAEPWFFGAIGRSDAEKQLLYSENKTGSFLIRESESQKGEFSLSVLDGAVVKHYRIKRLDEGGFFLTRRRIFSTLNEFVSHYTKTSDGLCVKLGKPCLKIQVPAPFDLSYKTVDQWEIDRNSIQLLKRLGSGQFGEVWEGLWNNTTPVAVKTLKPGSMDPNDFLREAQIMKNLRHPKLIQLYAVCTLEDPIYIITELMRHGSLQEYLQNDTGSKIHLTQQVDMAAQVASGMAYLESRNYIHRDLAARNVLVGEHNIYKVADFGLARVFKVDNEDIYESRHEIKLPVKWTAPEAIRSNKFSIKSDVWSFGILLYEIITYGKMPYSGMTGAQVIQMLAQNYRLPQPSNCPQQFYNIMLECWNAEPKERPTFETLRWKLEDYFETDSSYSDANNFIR

| Structure (SMILES) | kinase still bound, per cent of control [1] [%] | kinase still bound, per cent of control [2] [%] | kinase still bound, per cent of control [3] [%] | kinase still bound, per cent of control [4] [%] | kinase still bound, per cent of control [5] [%] | kinase still bound, per cent of control [6] [%] | kinase still bound, per cent of control [7] [%] | kinase still bound, per cent of control [8] [%] | kinase still bound, per cent of control [9] [%] | kinase still bound, per cent of control [10] [%] | kinase still bound, per cent of control [11] [%] | kinase still bound, per cent of control [12] [%] | kinase still bound, per cent of control [13] [%] | kinase still bound, per cent of control [14] [%] | kinase still bound, per cent of control [15] [%] | kinase still bound, per cent of control [16] [%] | kinase still bound, per cent of control [17] [%] | kinase still bound, per cent of control [18] [%] | kinase still bound, per cent of control [19] [%] | kinase still bound, per cent of control [20] [%] | other results |
| --- | --- | --- | --- | --- | --- | --- | --- | --- | --- | --- | --- | --- | --- | --- | --- | --- | --- | --- | --- | --- | --- |
| O=C1Nc2ccc(I)cc2/C1=C/c1cc(Br)c(O)c(Br)c1 | 67 | 98 | 73 | 46 | 100 | 59 | 100 | 100 | 87 | 79 | 100 | 100 | 33 | 100 | 100 | 17 | 94 | 74 | 8.2 | 76 | kinase still bound, per cent of control [21]: 92%; kinase still bound, per cent of control [22]: 100%; kinase still bound, per cent of control [23]: 100%; kinase still bound, per cent of control [24]: 14%; kinase still bound, per cent of control [25]: 100%; kinase still bound, per cent of control [26]: 96%; kinase still bound, per cent of control [27]: 100%; kinase still bound, per cent of control [28]: 65%; kinase still bound, per cent of control [29]: 100%; kinase still bound, per cent of control [30]: 100%; kinase still bound, per cent of control [31]: 100%; kinase still bound, per cent of control [32]: 45%; kinase still bound, per cent of control [33]: 7.8%; kinase still bound, per cent of control [34]: 75%; kinase still bound, per cent of control [35]: 100%; kinase still bound, per cent of control [36]: 40%; kinase still bound, per cent of control [37]: 99%; kinase still bound, per cent of control [38]: 56%; kinase still bound, per cent of control [39]: 100%; kinase still bound, per cent of control [40]: 100% |
| Cc1ccc(C(=O)Nc2cccc(C(F)(F)F)c2)cc1Nc1cncc(C(N)=O)c1 | 100 | 100 | 100 | 100 | 100 | 100 | 100 | 100 | 100 | 100 | 3.3 | 100 | 100 | 100 | 100 | 100 | 100 | 100 | 100 | 100 | kinase still bound, per cent of control [21]: 100%; kinase still bound, per cent of control [22]: 100%; kinase still bound, per cent of control [23]: 100%; kinase still bound, per cent of control [24]: 100%; kinase still bound, per cent of control [25]: 100%; kinase still bound, per cent of control [26]: 100%; kinase still bound, per cent of control [27]: 100%; kinase still bound, per cent of control [28]: 100%; kinase still bound, per cent of control [29]: 100%; kinase still bound, per cent of control [30]: 100%; kinase still bound, per cent of control [31]: 100%; kinase still bound, per cent of control [32]: 1.3%; kinase still bound, per cent of control [33]: 100%; kinase still bound, per cent of control [34]: 100%; kinase still bound, per cent of control [35]: 100%; kinase still bound, per cent of control [36]: 100%; kinase still bound, per cent of control [37]: 100%; kinase still bound, per cent of control [38]: 100%; kinase still bound, per cent of control [39]: 100%; kinase still bound, per cent of control [40]: 100% |
